Assay results as given in US12129255B2, “Pyrido [2,3-d]pyrimidine derivatives as inhibitors of human immunodeficiency virus replication” (VIIV HEALTHCARE UK (No. 5) LIMITED, priority 2019, dated 2024).

Assays:
[1] = Subcutaneous pharmacokinetics in rat; assay type: in vivo, Wistar Han Rats
Method: Drug was formulated in 1% Kolliphor P188/1% PEG3350/3.5% Mannitol/94.5% Water and then administered to Wistar Han Rats as a subcutaneous injection at a dose of 20 mg/kg. Blood samples were collected at 0.167, 0.25, 0.5, 0.75, 1, 2, 3, 5, 7, 24, 48, 72, 96 h, and then every 3 days for up to 122 days. Blood samples were collected into K3EDTA tubes and centrifuged at 1500 to 2000×g to obtain plasma. Plasma samples were stored at −20° C. until analysis by LC-MS/MS.

[2] = Cytotoxicity in uninfected MT2 cells, XTT colorimetric assay; assay type: cell-based; conditions: human, day 4, XTT
Method: Compound cytotoxicity and the corresponding CC50 values were determined using the same protocol as described in the antiviral assay except that uninfected cells were used. Cytotoxicity was assessed on day 4 in uninfected MT2 cells by using an XTT (2,3-bis[2-Methoxy-4-nitro-5-sulfophenyl]-2H-tetrazolium-5-carboxyanilide inner salt)-based colorimetric assay (Sigma-Aldrich, St Louis, Mo).

[3] = IV pharmacokinetics in rat; assay type: in vivo, Wistar Han Rats; conditions: Wistar Han, plasma, IV 1 mg/kg
Method: (§1) PK was investigated in male CD1 mice, Wistar Han Rats, Cynomolgus monkeys, and Beagle Dogs. Two groups of animals (N=3 per group) received test compound either as an intravenous (IV) dose (1 mg/kg) or by oral gavage (5 mg/kg solution and suspension). Drug was formulated in 90% PEG 400, 10% ethanol for IV administration and in 90% PEG400, 5% ethanol for PO administration. Blood samples were collected at 0.167, 0.25, 0.5, 0.75, 1, 2, 3, 5, 7, 24, 48, 72 and 96 h post dose for IV; 0.25, 0.5, 0.75, 1, 2, 3, 5, 7, 24, 48, 72 and 96 h post dose for oral. Blood samples were collected into K3EDTA tubes and centrifuged at 1500 to 2000×g to obtain plasma. Plasma samples were stored at −20° C. until analysis by LC-MS/MS. All in vivo samples were injected on an Exion LC 4500 Triple Quad™ LC-MS/MS system where the column was maintained at 60° C. and the flow rate was 0.6 mL/min. All LC-MS/MS analysis parameters are captured electronically in the raw data files. Rat IV, Dog IV, Monkey IV, and Monkey PO PK samples were analyzed by General Analysis Method A. Mouse IV, Mouse PO, and Dog PO PK samples were analyzed by General Analysis Method B. Rat PO samples were analyzed by General Analysis Method C.
(§2) The PK parameters were obtained by non-compartmental analysis of plasma concentration vs time data (Phoenix WinNonlin v8.1). The peak concentration (Cmax) and time for Cmax (Tmax) were recorded directly from experimental observations. The area under the curve from time zero to the last sampling time [AUC0-T] and the area under the curve from time zero to infinity [AUCINF] were calculated using the linear-log trapezoidal rule. The total plasma clearance (CLTp), steady-state volume of distribution (VSS), apparent elimination half-life (T-HALF), and mean residence time (MRT) were estimated after IV administration. Estimations of AUC and T-HALF were made using a minimum of three timepoints with quantifiable concentrations. The absolute oral bioavailability (F) was estimated as the ratio of dose-normalized AUC values following oral and IV doses.

[4] = IV pharmacokinetics in mouse; assay type: in vivo, male CD1 mice; conditions: male, CD1, plasma, IV 1 mg/kg
Method: as §1, §2

[5] = IV pharmacokinetics in monkey; assay type: in vivo, Cynomolgus monkeys
Method: as §1, §2

[6] = Metabolism in liver microsomes (dog); assay type: in vitro ADME
Method: (§3) Liver microsomes from human, rat dog and monkey were thawed and diluted to a final concentration of 1 mg/mL in 100 mM potassium phosphate buffer (pH 7.4). Test compounds and controls were prepared at 100× final concentration of 1 μM in 1:1 acetonitrile:water (v/v) and aliquoted into microsomal mixture. The mixture was preincubated at 37° C. in a shaking water bath for 10 minutes. The incubations were performed in duplicate. Three controls were included in the incubations; warfarin, phenacetin, and verapamil. After the preincubation, the reaction was initiated with NADPH at a final concentration of 1 mM. At 0, 5, 15, 30, 45 and 60 minutes, 25 μL of sample was removed and quenched with 300 μL of acetonitrile containing internal standard (Telmisartan). The samples were vortexed for 5 minutes at 1200 rpm and then centrifuged at 4000 rpm for 10 min. A 100 μL aliquot of supernatant was diluted three-fold with water and injected on an Exion LC 4500 Triple Quad LC-MS/MS system. Results were reported as a percentage of parent remaining and was calculated from peak area ratios of test compound remaining after at each time point and compared to time zero incubation.

[7] = Metabolism in liver microsomes (human); assay type: in vitro ADME; conditions: pH 7.4, 1 μM compound, 1 mg/mL microsomes, NADPH, read-out: Human liver microsome T1/2
Method: as §3

[8] = IV pharmacokinetics in dog; assay type: in vivo, Beagle Dogs
Method: as §1, §2

[9] = Allometric scaling of pre-clinical PK parameters to predict dose in human
Method: Human dose predictions were performed using Phoenix WinNonlin (v 8.0) software and Microsoft Excel using the ModelRisk add-in for population modeling. Human estimates for each compound's CLTp were obtained based on average allometric scaling of mouse, rat, monkey and dog IV data (body weight scaling factor of 0.75) and an average (body weight scaling factor of 1.0) from all species for VSS. Human IV parameters (Vc, Ka, K12, K21, Kel) were determined using Mean Residence Time (MRT) scaling from preclinical species (mouse, rat, dog and cyno) using the human VSS and CLTp estimates. Absorption (Ka) was determined by deconvolution (PO) or from the half-life (SC) in preclinical species (Ka=LN(2)/t1/2). The predicted human dose for PO and SC is calculated with consideration of human variability and is calculated to cover 95% of the human population.

[10] = cynomolgus monkey, plasma, Monkey, IV 1 mg/kg
[11] = Beagle, plasma, Dog, IV 1 mg/kg

Q: With `Cn1nc(NS(C)(=O)=O)c2c(Cl)ccc(-n3c([C@H](Cc4cc(F)cc(F)c4)NC(=O)Cn4nc(C(F)F)c5c4C(F)(F)[C@@H]4C[C@H]54)nc4nc(OCCC(F)(F)F)ccc4c3=O)c21` (atropisomer, axis not shown; (P)) [Example 1, N—((S)-1-((3P)-3-(4-chloro-1-methyl-3-(methylsulfonamido)-1H-indazol-7-yl)-4-oxo-7-(3,3,3-trifluoropropoxy)-3,4-dihydropyrido[2,3-d]pyrimidin-2-yl)-2-(3,5-difluorophenyl)ethyl)-2-((3bS,4aR)-3-(difluoromethyl)-5,5-difluoro-3b,4,4a,5-tetrahydro-1H-cyclopropa[3,4]cyclopenta[1,2-c]pyrazol-1-yl)acetamide] as the compound, how does the “% of the AUC extrapolated” value ([1]; SC 20 mg/kg) read?
A: 2.89%

Q: What about the “time drug concentrations were maintained above 7 ng/mL for all animals” value ([1]; SC 20 mg/kg (FIG. 1)) of the same compound?
A: 73 days

Q: What about the bioavailability ([1]; Wistar Han, plasma, SC 20 mg/kg) of the same compound?
A: 93%

Q: And the half-life ([1]; Wistar Han, plasma, SC 20 mg/kg, read-out: apparent half-life of compound in plasma (converted))?
A: 312 h

Q: And the CC50 at 4 days [2]?
A: > 500 nM

Q: What about the clearance [3] of the same compound?
A: 2.64 mL/min/kg

Q: And the half-life [3]?
A: 17.4 h

Q: What about the Vd ([3]; read-out: Vss) of the same compound?
A: 3.34 L/kg

Q: What about the clearance [4] of the same compound?
A: 0.5 mL/min/kg

Q: And the half-life [4]?
A: 7.6 h

Q: What about the Vd ([4]; read-out: Vss) of the same compound?
A: 0.24 L/kg

Q: What about the clearance [5, 10] of the same compound?
A: 8.5 mL/min/kg

Q: And the half-life [5, 10]?
A: 3 h

Q: What about the Vd ([5]; cynomolgus monkey, plasma, Monkey, IV 1 mg/kg, read-out: Vss) of the same compound?
A: 1.18 L/kg

Q: What about the “clearance improved relative to Example 60.2” value ([5]; monkey, IV) of the same compound?
A: 2.6 fold

Q: What about the “half-life in circulation higher than Example 60.2” value ([5]; monkey, IV) of the same compound?
A: two-fold

Q: What about the “stability in dog liver microsomes relative to Example 60.2” value ([6]; Example 1 versus Example 60.2) of the same compound?
A: six times more stable

Q: And the half-life at 1 μM ([6]; dog, liver microsomes, pH 7.4, 1 μM compound, 1 mg/mL microsomes, NADPH, read-out: Dog liver microsome T1/2)?
A: 1.75 h

Q: What about the half-life at 1 μM [7] of the same compound?
A: > 2 h

Q: What about the clearance [8, 11] of the same compound?
A: 1.68 mL/min/kg

Q: What about the half-life [8, 11] of the same compound?
A: 8.6 h

Q: And the Vd ([8]; Beagle, plasma, Dog, IV 1 mg/kg, read-out: Vss)?
A: 0.83 L/kg

Q: What about the “clearance improved relative to Example 60.2” value ([8]; dog, IV) of the same compound?
A: 4.9 fold

Q: And the “half-life in circulation higher than Example 60.2” value ([8]; dog, IV)?
A: 3.4 fold

Q: And the “predicted human QD PO dose” value ([9]; once-daily oral, allometric scaling, to cover 95% of the human population)?
A: less than 10 mg

Q: And the “predicted Q1M SC dose in human lower than for Example 60.2” value ([9]; once-monthly subcutaneous, from SC rat PK and predicted human clearance)?
A: 15 fold

Q: And the “predicted once-daily oral dose in human lower than for Example 60.2” value ([9]; to maintain efficacious plasma concentration)?
A: 7 fold
